The record followed here is article PMC6104039 (Nature Communications, 2018).

Structures are written as SMILES. Several values for one entry are separate records, joined by “and”; a condition that tells them apart may be missing. Equal entries are not always repeated.

This test has as its system HEK293 cells. The test is described as follows: Endogenous ceramide, HexCer and SM levels in cells treated 24 h, targeted LC-MS/MS. The class given is cell-based. The note with it: HEK293 cells, 24 h. The procedure: Lipids were then extracted using MTBE/methanol/water as described above.
HEK293 cell culture experiment: Levels of each lipid in P053-treated HEK293 cells were normalised to the mean of the vehicle control group, and each concentration was compared to the control using ANOVA with Dunnett’s post-test. P values were adjusted for multiple comparisons in GraphPad PRISM.
Supplementary Figure 1. Ceramide, SM, and HexCer levels in HEK293 cells treated with
P053. Absolute lipid levels were determined by targeted LC-MS/MS, relative to external
standard curves. Results are mean ± SEM (n = 4) from one of two identical experiments.
Statistically significant results, based on two independent experiments, are as indicated in
Figure 2b-d. Raw data for these figures is provided in Supplementary Data File 1.

Regarding `C[C@@](N)(CO)CCc1ccc(OCc2ccc(Cl)c(Cl)c2)cc1` [P053, (S)-2-amino-4-(4-(3,4-dichlorobenzyloxy)phenyl)-2-methylbutan-1-ol], the “24:1 SM level” value (P053 10 nM) is 96.7947 percentage of the vehicle control group and 98.2864 percentage of the vehicle control group and 81.9082 percentage of the vehicle control group and 117.227 percentage of the vehicle control group and 113.319 percentage of the vehicle control group and 103.033 percentage of the vehicle control group and 103.816 percentage of the vehicle control group and 97.9548 percentage of the vehicle control group. Where the note is “P053 30 nM”, the “14:0 SM level” value was 116.988 percentage of the vehicle control group and 111.4 percentage of the vehicle control group and 100.814 percentage of the vehicle control group and 94.1513 percentage of the vehicle control group and 120.651 percentage of the vehicle control group and 105.592 percentage of the vehicle control group and 111.904 percentage of the vehicle control group and 100.551 percentage of the vehicle control group; the “16:0 Cer level” value is 114.03 percentage of the vehicle control group and 105.56 percentage of the vehicle control group and 86.7073 percentage of the vehicle control group and 95.6011 percentage of the vehicle control group and 106.761 percentage of the vehicle control group and 98.8726 percentage of the vehicle control group and 108.159 percentage of the vehicle control group and 97.2516 percentage of the vehicle control group; the “16:0 HexCer level” value was 79.9911 percentage of the vehicle control group and 81.3101 percentage of the vehicle control group and 74.3038 percentage of the vehicle control group and 88.8289 percentage of the vehicle control group and 99.9863 percentage of the vehicle control group and 95.9283 percentage of the vehicle control group and 102.652 percentage of the vehicle control group and 109.256 percentage of the vehicle control group; the “16:0 SM level” value is 101.805 percentage of the vehicle control group and 101.307 percentage of the vehicle control group and 94.9476 percentage of the vehicle control group and 93.9555 percentage of the vehicle control group and 110.566 percentage of the vehicle control group and 97.2802 percentage of the vehicle control group and 102.981 percentage of the vehicle control group and 97.8958 percentage of the vehicle control group. For the same molecule, under “P053 30 nM”, the “16:1 SM level” value is 104.561 percentage of the vehicle control group and 101.096 percentage of the vehicle control group and 98.3763 percentage of the vehicle control group and 109.464 percentage of the vehicle control group and 104.292 percentage of the vehicle control group and 104.01 percentage of the vehicle control group and 101.515 percentage of the vehicle control group; the “18:0 Cer level” value was 72.2013 percentage of the vehicle control group and 69.2543 percentage of the vehicle control group and 56.626 percentage of the vehicle control group and 64.3691 percentage of the vehicle control group and 82.5432 percentage of the vehicle control group and 84.0607 percentage of the vehicle control group and 83.9582 percentage of the vehicle control group and 71.3957 percentage of the vehicle control group; the “18:0 HexCer level” value is 55.7883 percentage of the vehicle control group and 64.0009 percentage of the vehicle control group and 45.6733 percentage of the vehicle control group and 59.2017 percentage of the vehicle control group and 57.5393 percentage of the vehicle control group and 74.8051 percentage of the vehicle control group and 77.6074 percentage of the vehicle control group; the “18:0 SM level” value was 73.8483 percentage of the vehicle control group and 78.6872 percentage of the vehicle control group and 83.1913 percentage of the vehicle control group and 75.9206 percentage of the vehicle control group and 97.6949 percentage of the vehicle control group and 87.2321 percentage of the vehicle control group and 89.1916 percentage of the vehicle control group and 74.9956 percentage of the vehicle control group. Moreover, where the note is “P053 30 nM”, the “18:1 SM level” value was 87.9585 percentage of the vehicle control group and 73.1683 percentage of the vehicle control group and 79.2449 percentage of the vehicle control group and 71.4358 percentage of the vehicle control group and 96.5941 percentage of the vehicle control group and 87.3865 percentage of the vehicle control group and 81.7473 percentage of the vehicle control group and 78.1368 percentage of the vehicle control group; the “20:0 Cer level” value was 62.7306 percentage of the vehicle control group and 109.856 percentage of the vehicle control group and 118.09 percentage of the vehicle control group and 96.2985 percentage of the vehicle control group and 100.9 percentage of the vehicle control group and 105.057 percentage of the vehicle control group and 91.6087 percentage of the vehicle control group; the “22:0 Cer level” value is 116.044 percentage of the vehicle control group and 99.7524 percentage of the vehicle control group and 91.9349 percentage of the vehicle control group and 88.0267 percentage of the vehicle control group and 116.852 percentage of the vehicle control group and 103.772 percentage of the vehicle control group and 120.038 percentage of the vehicle control group and 118.899 percentage of the vehicle control group; the “22:0 HexCer level” value was 90.0465 percentage of the vehicle control group and 79.6776 percentage of the vehicle control group and 76.0982 percentage of the vehicle control group and 95.044 percentage of the vehicle control group and 107.866 percentage of the vehicle control group and 100.167 percentage of the vehicle control group and 123.322 percentage of the vehicle control group and 116.268 percentage of the vehicle control group. Under “P053 30 nM”, the “22:0 SM level” value is 128.14 percentage of the vehicle control group and 90.1111 percentage of the vehicle control group and 110.345 percentage of the vehicle control group and 114.556 percentage of the vehicle control group and 123.558 percentage of the vehicle control group and 116.784 percentage of the vehicle control group and 129.764 percentage of the vehicle control group and 100.326 percentage of the vehicle control group; the “22:1 SM level” value was 99.3902 percentage of the vehicle control group and 113.946 percentage of the vehicle control group and 108.27 percentage of the vehicle control group and 113.134 percentage of the vehicle control group and 107.671 percentage of the vehicle control group and 100.443 percentage of the vehicle control group and 99.5068 percentage of the vehicle control group and 95.4079 percentage of the vehicle control group; the “24:0 HexCer level” value was 96.4804 percentage of the vehicle control group and 86.7028 percentage of the vehicle control group and 84.7209 percentage of the vehicle control group and 91.5325 percentage of the vehicle control group and 104.127 percentage of the vehicle control group and 98.7325 percentage of the vehicle control group and 129.497 percentage of the vehicle control group and 115.717 percentage of the vehicle control group; the “24:0 SM level” value is 114.636 percentage of the vehicle control group and 105.214 percentage of the vehicle control group and 97.3725 percentage of the vehicle control group and 90.2877 percentage of the vehicle control group and 117.867 percentage of the vehicle control group and 114.443 percentage of the vehicle control group and 132.815 percentage of the vehicle control group and 128.722 percentage of the vehicle control group. Also, for the setting “P053 30 nM”, the “24:1 Cer level” value was 117.491 percentage of the vehicle control group and 102.844 percentage of the vehicle control group and 87.9247 percentage of the vehicle control group and 98.6487 percentage of the vehicle control group and 120.911 percentage of the vehicle control group and 109.977 percentage of the vehicle control group and 130.805 percentage of the vehicle control group and 124.062 percentage of the vehicle control group; the “24:1 HexCer level” value is 93.843 percentage of the vehicle control group and 87.9781 percentage of the vehicle control group and 89.6469 percentage of the vehicle control group and 99.7739 percentage of the vehicle control group and 102.587 percentage of the vehicle control group and 104.249 percentage of the vehicle control group and 119.244 percentage of the vehicle control group and 107.968 percentage of the vehicle control group; the “24:1 SM level” value is 102.826 percentage of the vehicle control group and 100.942 percentage of the vehicle control group and 98.397 percentage of the vehicle control group and 94.2567 percentage of the vehicle control group and 116.83 percentage of the vehicle control group and 103.091 percentage of the vehicle control group and 120.071 percentage of the vehicle control group and 112.514 percentage of the vehicle control group. In addition, the “14:0 SM level” value (P053 100 nM) was 112.517 percentage of the vehicle control group and 90.2734 percentage of the vehicle control group and 104.152 percentage of the vehicle control group and 104.709 percentage of the vehicle control group and 117.225 percentage of the vehicle control group and 115.891 percentage of the vehicle control group and 108.424 percentage of the vehicle control group and 118.856 percentage of the vehicle control group.
